Holding throughout (type): cell-based
For assay [1], the system named is HCT-116 colon cancer cells. The assay is described as follows: Antiproliferative activity, growth inhibition (MTS/WST assay). The settings on record: Homo sapiens, 72 hour growth inhibition, read-out: GI50 HCT116. The method, then: The novel compounds of the present invention were tested for their ability to inhibit growth of various cancer cell lines (HeLa, MCF7, U2OS, HepG2, HL60, HCT-116) using in vitro growth inhibition assays described below.
Cells were seeded in 96-well culture plates (200 microliters/well at different seeding concentrations depending on cell type) and incubated overnight at 37 degrees Celsius in 5% CO2. After adding compound dilutions to the cells (DMSO concentration kept below 0.5%), the cells were incubated at 37 degrees Celsius in 5% CO2 for 72 hours. The effects on proliferation were determined by addition of MTS reagent (Promega) according to the manufacturer's instruction, followed by incubation for 2 hours at 37 degrees Celsius in 5% CO2, and finally recording the absorbance at 490 nm using an ELISA plate reader.
Similar to MTS assay except that the developer is the CCK-8 reagent (Dojindo) and the plate reader is set to 450 nm absorbance.
GI50 values against HCT-116 colon cancer cells for specific representative compounds can be found in Table 4.

The test system of assay [2] is p21 promoter-luciferase construct in HeLa cells. Description: p21 reporter gene induction. Conditions: 3 micromolar, 15 hours, relative to SNDX-275. The procedure:
(§1) The novel compounds of the present invention were tested for their ability to induce p21 gene expression using a reporter gene assay involving HeLa cells transfected with a p21 promoter-luciferase construct. The p21 promoter contained the Sp1/Sp3 binding site for HDAC but not the upstream p53 binding site. Briefly, the day before transfection, HeLa cells were seeded at 11,000 cells/well in a 96-well culture plate and incubated at 37 degrees Celsius in 5% CO2 overnight. For transfection, the medium was removed and replaced with 100 microliters/well transfection media previously prepared as follows: 5 microliters serum-free DMEM, 0.15 microliters Fugene 6 reagent, 40 ng p21-luc, 10 ng GFP were mixed gently and incubated at room temperature for 30 minutes; then 98 microliters DMEM (with 10% FBS, 1% penicillin and streptomycin) was added to the DNA:Fugene 6 reagent complex and mixed gently. After incubating the cells for 24 hours at 37 degrees Celsius in 5% CO2, fresh media and test compounds were added to the wells and the cells further incubated for 15 hours at 37 degrees Celsius in 5% CO2. Cells were lysed by adding 80 microliters/well of a cell culture lysis reagent (Promega). 50 microliters of each lysate was taken for GFP detection using an excitation wavelength of 486 nm and detection at 527 nm. 100 microliters Luciferase assay reagent (Promega) was then added to every 20 microliters cell lysate for luminometer detection. […] Induction activity for specific representative compounds can be found in Table 4.

The subject of assay [3] is klf2 promoter-luciferase construct in A204 cells. The assay is described as follows: klf2 reporter gene induction (p21 versus klf2 selectivity). Conditions: SNDX-275 p21/klf2 ratio defined as 1.0; for p21/klf2 (RP3): relative selectivity compared with SNDX-275: 3 micromolar; for p21/klf2 (RP10): relative selectivity compared with SNDX-275: 10 micromolar. The procedure: as §1
The novel compounds of the present invention were tested for their ability to induce klf2 gene expression using a reporter gene assay involving A204 cells transfected with a klf2 promoter-luciferase construct. The klf2 promoter contained the MEF2 binding site for HDAC3/class IIa HDAC complex. Briefly, the day before transfection, A204 cells were seeded at 11,000 cells/well in a 96-well culture plate and incubated at 37 degrees Celsius in 5% CO2 overnight. For transfection, the medium was removed and replaced with 100 microliters/well transfection media previously prepared as follows: 5 microliters serum-free DMEM, 0.15 microliters Fugene 6 reagent, 40 ng klf2-luc, 10 ng GFP were mixed gently and incubated at room temperature for 30 minutes; then 98 microliters DMEM (with 10% FBS, 1% penicillin and streptomycin) was added to the DNA:Fugene 6 reagent complex and mixed gently. After incubating the cells for 24 hours at 37 degrees Celsius in 5% CO2, fresh media and test compounds were added to the wells and the cells further incubated for 15 hours at 37 degrees Celsius in 5% CO2. Finally, 10 ng/ml TNF-α was added and the cells further incubated for 4 hours. Cells were lysed by adding 80 microliters/well of a cell culture lysis reagent (Promega). 50 microliters of each lysate was taken for GFP detection using an excitation wavelength of 486 nm and detection at 527 nm. 100 microliters Luciferase assay reagent (Promega) was then added to every 20 microliters cell lysate for luminometer detection.

The structures appear in SMILES notation.

For the compound `Nc1ccccc1NC(=O)/C=C/c1ccc(C(OCCN2CCOCC2)C(=O)Nc2ccc(C(F)(F)F)cc2)cc1` (centres unmarked) [Example 19, (E)-N-(2-Amino-phenyl)-3-{4-[(2-morpholin-4-yl-ethoxy)-(4-trifluoromethyl-phenylcarbamoyl)-methyl]-phenyl}-acrylamide], the concentration for 50% growth inhibition (GI50) in assay [1] came out at 2.2 µM. The “p21 (RP3): relative induction potency compared with SNDX-275” value (“p21 (RP3): relative induction potency” for short) in assay [2] stood at 98%. Further, in assay [3], the “p21/klf2 (RP3): relative selectivity compared with SNDX-275” value (“p21/klf2 (RP3): relative selectivity” below) came out at 1.6 and the “p21/klf2 (RP10): relative selectivity compared with SNDX-275” value (from here on “p21/klf2 (RP10): relative selectivity”) was 3.6.

With `Nc1ccccc1NC(=O)/C=C/c1ccc(C(NCCN2CCOCC2)C(=O)Nc2ccc(C(F)(F)F)cc2)cc1` (centres unmarked) [Example 30, (E)-N-(2-Amino-phenyl)-3-{4-[(2-morpholin-4-yl-ethylamino)-(4-trifluoromethyl-phenylcarbamoyl)-methyl]-phenyl}-acrylamide], the 50% growth inhibitory concentration (GI50) in assay [1] was 0.8 µM. Moreover, the “p21 (RP3): relative induction potency” value in assay [2] is reported as 100%. In assay [3], the “p21/klf2 (RP3): relative selectivity” value came out at 1.3 and the “p21/klf2 (RP10): relative selectivity” value is reported as 3.9.

Take `CNC(C(=O)Nc1ccc(C(F)(F)F)cc1)c1ccc(/C=C/C(=O)Nc2ccccc2N)cc1` (centres unmarked) [Example 9-17, (E)-N-(2-Amino-phenyl)-3-{4-[methylamino-(4-trifluoromethyl-phenylcarbamoyl)-methyl]-phenyl}-acrylamide]: the 50% growth inhibitory concentration (GI50) in assay [1] amounted to 1.9 µM. Also, in assay [2], the “p21 (RP3): relative induction potency” value stood at 84%. In assay [3], the “p21/klf2 (RP3): relative selectivity” value stood at 1.3 and the “p21/klf2 (RP10): relative selectivity” value amounted to 1.9.

Regarding `Nc1ccccc1NC(=O)/C=C/c1ccc(C(C(=O)Nc2ccc(C(F)(F)F)cc2)N2CCCCC2)cc1` (centres unmarked) [Example 9-29, (E)-N-(2-Amino-phenyl)-3-{4-[piperidin-1-yl-(4-trifluoromethyl-phenylcarbamoyl)-methyl]-phenyl}-acrylamide], in assay [1], the GI50 is 7.1 µM. In addition, the “p21 (RP3): relative induction potency” value in assay [2] was found to be 10%. In assay [3], the “p21/klf2 (RP3): relative selectivity” value is 0.3 and the “p21/klf2 (RP10): relative selectivity” value came out at 0.5.

With `Nc1ccccc1NC(=O)/C=C/c1ccc(C(C(=O)Nc2ccc(C(F)(F)F)cc2)N2CCCC2)cc1` (centres unmarked) [Example 9-11, (E)-N-(2-Amino-phenyl)-3-{4-[pyrrolidin-1-yl-(4-trifluoromethyl-phenylcarbamoyl)-methyl]-phenyl}-acrylamide], the GI50 in assay [1] was determined as 0.9 µM. Besides, the “p21 (RP3): relative induction potency” value in assay [2] is reported as 97%. Also, in assay [3], the “p21/klf2 (RP3): relative selectivity” value is 1.1 and the “p21/klf2 (RP10): relative selectivity” value was found to be 2.7.

On to `Nc1ccccc1NC(=O)/C=C/c1ccc(C(NCCN2CCSCC2)C(=O)Nc2ccc(C(F)(F)F)cc2)cc1` (centres unmarked) [Example 4-14, (E)-N-(2-Amino-phenyl)-3-{4-[(2-thiomorpholin-4-yl-ethylamino)-(4-trifluoromethyl-phenylcarbamoyl)-methyl]-phenyl}-acrylamide], for which the GI50 in assay [1] was 0.6 µM. The “p21 (RP3): relative induction potency” value in assay [2] is listed as 84%. In assay [3], the “p21/klf2 (RP3): relative selectivity” value was found to be 1.2 and the “p21/klf2 (RP10): relative selectivity” value is recorded as 5.1.

For `Nc1ccccc1NC(=O)/C=C/c1ccc(C(NCCN2CCOCC2)C(=O)Nc2ccc(OC(F)(F)F)cc2)cc1` (centres unmarked) [Example 4-4, (E)-N-(2-Amino-phenyl)-3-{4-[(2-morpholin-4-yl-ethylamino)-(4-trifluoromethoxy-phenylcarbamoyl)-methyl]-phenyl}-acrylamide], the concentration for 50% growth inhibition (GI50) in assay [1] was 1.1 µM. Moreover, the “p21 (RP3): relative induction potency” value in assay [2] came to 125%. In assay [3], the “p21/klf2 (RP3): relative selectivity” value is reported as 1.2 and the “p21/klf2 (RP10): relative selectivity” value came out at 3.1.

With `Nc1ccccc1NC(=O)/C=C/c1ccc(C(C(=O)Nc2ccc(C(F)(F)F)cc2)N2CCOCC2)cc1` (centres unmarked) [Example 9-10, (E)-N-(2-Amino-phenyl)-3-{4-[morpholin-4-yl-(4-trifluoromethyl-phenylcarbamoyl)-methyl]-phenyl}-acrylamide], the concentration for 50% growth inhibition (GI50) in assay [1] was determined as 1.1 µM. Besides, in assay [2], the “p21 (RP3): relative induction potency” value turned out to be 80%. In assay [3], the “p21/klf2 (RP3): relative selectivity” value amounted to 1.0 and the “p21/klf2 (RP10): relative selectivity” value was 1.6.

On to `CN(C)CCNC(C(=O)Nc1ccc(Br)cc1)c1ccc(/C=C/C(=O)Nc2ccccc2N)cc1` (centres unmarked) [Example 9-3, (E)-N-(2-Amino-phenyl)-3-{4-[(4-bromo-phenylcarbamoyl)-(2-dimethylamino-ethylamino)-methyl]-phenyl}-acrylamide], for which, in assay [1], the 50% growth inhibitory concentration (GI50) came out at 0.3 µM. For the same compound, the “p21 (RP3): relative induction potency” value in assay [2] amounted to 152%. Further, in assay [3], the “p21/klf2 (RP3): relative selectivity” value worked out at 1.6 and the “p21/klf2 (RP10): relative selectivity” value turned out to be 1.7.

Consider `Nc1ccccc1NC(=O)/C=C/c1ccc(C(NCCCN2CCOCC2)C(=O)Nc2ccc(C3CC3)cc2)cc1` (centres unmarked) [Example 4-41, (E)-N-(2-Amino-phenyl)-3-{4-[(4-cyclopropyl-phenylcarbamoyl)-(3-morpholin-4-yl-propylamino)-methyl]-phenyl}-acrylamide], for which, in assay [1], the GI50 stood at 1.4 µM. Besides, the “p21 (RP3): relative induction potency” value in assay [2] worked out at 156%. In addition, in assay [3], the “p21/klf2 (RP3): relative selectivity” value was determined as 3.5 and the “p21/klf2 (RP10): relative selectivity” value is given as 2.1.

For the compound `C[C@@H]1CN(CCNC(C(=O)Nc2ccc(C(F)(F)F)cc2)c2ccc(/C=C/C(=O)Nc3ccccc3N)cc2)C[C@H](C)O1` (stereo partly drawn) [Example 9-28, (E)-N-(2-Amino-phenyl)-3-{4-[[2-((2R,6S)-2,6-dimethyl-morpholin-4-yl)-ethylamino]-(4-trifluoromethyl-phenylcarbamoyl)-methyl]-phenyl}-acrylamide], the GI50 in assay [1] came to 1.8 µM. For the same compound, the “p21 (RP3): relative induction potency” value in assay [2] amounted to 33%. Besides, in assay [3], the “p21/klf2 (RP3): relative selectivity” value is 0.5 and the “p21/klf2 (RP10): relative selectivity” value worked out at 0.9.

For `Nc1ccccc1NC(=O)/C=C/c1ccc(C(NCCN2CCCCC2)C(=O)Nc2ccc(OC(F)(F)F)cc2)cc1` (centres unmarked) [Example 4-48, (E)-N-(2-Amino-phenyl)-3-{4-[(2-piperidin-1-yl-ethylamino)-(4-trifluoromethoxy-phenylcarbamoyl)-methyl]-phenyl}-acrylamide], the GI50 in assay [1] stood at 1.4 µM. Moreover, the “p21 (RP3): relative induction potency” value in assay [2] is 130%. In assay [3], the “p21/klf2 (RP3): relative selectivity” value stood at 1.9 and the “p21/klf2 (RP10): relative selectivity” value was 1.9.

As for `Nc1ccccc1NC(=O)/C=C/c1ccc(C(NCCO)C(=O)Nc2ccc(C(F)(F)F)cc2)cc1` (centres unmarked) [Example 4-69, (E)-N-(2-Amino-phenyl)-3-{4-[(2-hydroxy-ethylamino)-(4-trifluoromethyl-phenylcarbamoyl)-methyl]-phenyl}-acrylamide], the GI50 in assay [1] came to 1.7 µM. Further, in assay [2], the “p21 (RP3): relative induction potency” value was 117%. For the same compound, in assay [3], the “p21/klf2 (RP3): relative selectivity” value came out at 1.0 and the “p21/klf2 (RP10): relative selectivity” value is listed as 2.3.

As to `CN(C)CCNC(C(=O)Nc1ccc(C(F)(F)F)c(F)c1)c1ccc(/C=C/C(=O)Nc2ccccc2N)cc1` (centres unmarked) [Example 4-49, (E)-N-(2-Amino-phenyl)-3-{4-[(2-dimethylamino-ethylamino)-(3-fluoro-4-trifluoromethyl-phenylcarbamoyl)-methyl]-phenyl}-acrylamide], the GI50 in assay [1] was 1.4 µM. Moreover, in assay [2], the “p21 (RP3): relative induction potency” value turned out to be 128%. Also, in assay [3], the “p21/klf2 (RP3): relative selectivity” value is given as 1.5 and the “p21/klf2 (RP10): relative selectivity” value was found to be 1.5.

Source of the values: patent publication US7795315B2, “N-(2-amino-phenyl)-amide derivatives” (Hoffman-La Roche Inc., priority 2008, dated 2010).
